# Data published in patent US20120122843A1, “Compounds and Their Use for Treatment of Amyloid Beta-Related Diseases” (ASTRAZENECA AB, priority 2010, published 2012).
# Experiments:
# Notch = assay: Release and translocation of Notch intracellular domain into the nucleus, HEK/AENotch cells (NICD immunostaining, ImageXpress); format: cell-based, Human; settings: 3 μM Lactacystin, 4-6 h incubation, nucleus/cytosol NICD fluorescence ratio
# Description: The level of activity of the compounds on release and translocation of Notch intracellular domain into the cell nucleus was tested using the following method:
# Compounds were diluted in 100% DMSO and stored at […] prior to use. Human Embryonic Kidney cell line overexpressing Notchl-E-human-myc construct (referred to as HEK/AENotch) were cultured in T75 cm^2 or T225 cm^2 cell culture flasks using Dulbecco's Modified Eagles medium (DMEM) supplemented with […] glucose, Na-pyruvate and GlutaMAX with 10% FBS, 100 U/ml penicillin-streptomycin (PEST) respectively, 1× non-essential amino acids (NEAA), […] Hepes and 100 μg/ml Hygromycin. Cells at about 80% confluence were washed with PBS, detached from the flask bottom using 1× Trypsin/EDTA diluted in PBS, re-suspended in cell media and plated in 384-well plates at about 10000 cells/well, in 25 μL cell media. Optionally, cryo-preserved cells (frozen and stored at −140° C. in 90% cell media and 10% DMSO) were thawed, washed and plated as above. Next the cells were incubated for 15-24 h at 37° C. and 5% CO2, after which cell medium was replaced with fresh medium containing 3 μM Lactacystin and test compound diluted ×200 from prepared compound plate giving 0.5% final DMSO concentration, and the highest compound concentration typically 25 μM. Cells were then incubated 4-6 h with test compound before being fixed, washed and immunostained with NICD antibody (rabbit Notch 1 (C-20)). Image acquisition of cytosolic/membrane and nuclear fluorescence as well as subsequent analysis of the nucleus and cytosolic fluorescence ratio was carried out using ImageXpress. Potential cytotoxic effects of the compounds were usually assayed by analysis of nucleus area or cell number.
# Aβ42 = Aβ42 release from HEK cells stably expressing APPswe (MSD electrochemiluminescence); format: cell-based, Human; settings: 4-6 h incubation with test compound, Aβ42 secreted to cell medium
# Description: The level of activity of the compounds on Aβ formation was tested using the following method:
# Compounds were diluted in 100% DMSO and stored at […] prior to use. Human Embryonic Kidney (HEK) cell line stably expressing APP with the Swedish mutation (APPswe) were cultured using Dulbecco's Modified Eagles medium (DMEM) supplied with […] glucose, Na-pyruvate and GlutaMAX with 10% FBS, 100 U/ml penicillin-streptomycin (PEST) respectively, 1× non-essential amino acids (NEAA), […] Hepes, 100 μg/ml Zeocine. Cells at about 80% confluence were washed with PBS, detached from culture flasks using 1× Trypsin/EDTA diluted in PBS, re-suspended in cell media and plated in 384-well poly-d-lysine coated cell culture plates at about 10000-15000 cells/well, in 25 μL cell media. Optionally, cryo-preserved cells (frozen and stored at −140° C. in 90% cell media and 10% DMSO) were thawed, washed and plated as above. Next the cells were incubated for 15-24 h at 37° C. and 5% CO2, after which cell medium was changed. Fresh medium containing test compound diluted ×200 from prepared compound plate was added to the cells before further incubation for 4-6 hours at 37° C. and 5% CO2. After incubation with test compound the amount of Aβ peptides, including Aβ42, Aβ40, Aβ39, Aβ38 and Aβ37, as well as total Aβ levels, secreted to cell medium was analyzed using the electrochemiluminescence assay technology from Meso Scale Discovery (MSD), in combination with specific antibodies raised against the different Aβ peptides. Aβ42, Aβ40 and Aβ38 antibodies were purchased from MSD and Aβ37 and Aβ39 were made in house. Total Aβ was measured using a combination of 6E10 and 4G8 anti Aβ antibodies from MSD. Potential cytotoxic effects of the compounds were usually assayed by measuring the ATP content (ViaLight) from cell lysate.
# [1] = Homo sapiens, HEK293, HEK cells expressing APPswe
IC50 (Aβ42; HEK cells expressing APPswe) [nM],IC50 (Aβ42; [1]) [nM],SMILES,IC50 (Notch) [nM],IC50 (Notch; Homo sapiens) [nM]
,44,"Cc1cn(-c2ccc(Nc3ccc4c(n3)O[C@H](c3nc(C)cs3)CN(C)C4)nc2C#N)cn1 [Example 55, 3-(4-Methylimidazol-1-yl)-6-[[(2S)-4-methyl-2-(4-methylthiazol-2-yl)-3,5-dihydro-2H-pyrido[3,2-f][1,4]oxazepin-8-yl]amino]pyridine-2-carbonitrile]",,> 25000
,10,"COc1nc(Nc2ccc3c(n2)O[C@H](c2ccc(F)cn2)CN(C)C3C)ccc1-n1cnc(C)c1 (single isomer, unassigned; (-)) [Example 52]",,7200
,17,"COc1nc(Nc2ccc3c(n2)OC(CC(F)(F)F)CN(C)C3)ccc1-c1cnn(C)c1 (stereo not shown) [Example 3, N-(6-Methoxy-5-(1-methyl-1H-pyrazol-4-yl)pyridin-2-yl)-4-methyl-2-(2,2,2-trifluoroethyl)-2,3,4,5-tetrahydropyrido[3,2-f][1,4]oxazepin-8-amine]",,> 25000
,18,"COc1nc(Nc2ccc3c(n2)OC(CC(F)(F)F)CN(C)C3)ccc1-n1cnc(C)c1 (stereo not shown) [Example 6, N-(6-Methoxy-5-(4-methyl-1H-imidazol-1-yl)pyridin-2-yl)-4-methyl-2-(2,2,2-trifluoroethyl)-2,3,4,5-tetrahydropyrido[3,2-f][1,4]oxazepin-8-amine]",,> 7900
5,,"COc1nc(Nc2ccc3c(n2)OC(CCC(F)(F)F)CN(C)C3)ccc1-n1cnc(C)c1 (single isomer, unassigned; (-)) [Example 62, (−)-[6-Methoxy-5-(4-methyl-imidazol-1-yl)-pyridin-2-yl]-[6-methyl-8-(3,3,3-trifluoro-propyl)-5,6,7,8-tetrahydro-9-oxa-1,6-diaza-benzocyclohepten-2-yl]-amine]",> 25000,
5,,"COc1nc(Nc2ccc3c(n2)OC(CCC(F)(F)F)CN(C)C3)ccc1-c1cnn(C)c1 (single isomer, unassigned; (+)) [Example 57, (+)-N-[6-Methoxy-5-(1-methylpyrazol-4-yl)-2-pyridyl]-4-methyl-2-(3,3,3-trifluoropropyl)-3,5-dihydro-2H-pyrido[3,2-f][1,4]oxazepin-8-amine]",> 11500,

# The remaining lines, values behind:
SMILES,IC50 (Aβ42; HEK cells expressing APPswe) [nM],IC50 (Aβ42; [1]) [nM],IC50 (Notch) [nM],IC50 (Notch; Homo sapiens) [nM]
"COc1nc(Nc2ccc3c(n2)OC(C2CC2)CN(C)C3C)ccc1-c1cnn(C)c1 (single isomer, unassigned) [Example 20, 2-Cyclopropyl-N-(6-methoxy-5-(1-methyl-1H-pyrazol-4-yl)pyridin-2-yl)-4,5-dimethyl-2,3,4,5-tetrahydropyrido[3,2-f][1,4]oxazepin-8-amine]",91,,> 7900,
"COc1nc(Nc2ccc3c(n2)OC(c2nc(C)cs2)C(C)N(C)C3)ccc1-c1cnn(C)c1 (single isomer, unassigned) [Example 29, N-(6-Methoxy-5-(1-methyl-1H-pyrazol-4-yl)pyridin-2-yl)-3,4-dimethyl-2-(4-methylthiazol-2-yl)-2,3,4,5-tetrahydropyrido[3,2-f][1,4]oxazepin-8-amine]",68,,5000,
"COc1nc(Nc2ccc3c(n2)OC(c2cc(C)ccn2)CN(C)C3)ccc1-c1cnn(C)c1 (stereo not shown) [Example 42, N-(6-Methoxy-5-(1-methyl-1H-pyrazol-4-yl)pyridin-2-yl)-4-methyl-2-(4-methylpyridin-2-yl)-2,3,4,5-tetrahydropyrido[3,2-f][1,4]oxazepin-8-amine]",,46,,> 25000
"COc1nc(Nc2cc(C)c3c(n2)OC(C2CCCO2)CN(C)C3)ccc1-c1cnn(C)c1 (single isomer, unassigned) [Example 25, N-(6-Methoxy-5-(1-methyl-1H-pyrazol-4-yl)pyridin-2-yl)-4,6-dimethyl-2-(tetrahydrofuran-2-yl)-2,3,4,5-tetrahydropyrido[3,2-f][1,4]oxazepin-8-amine]",,73,,> 7900
"COc1nc(Nc2ccc3c(n2)O[C@H](c2ccc(F)cn2)CN(C)C3C)ccc1-c1cnn(C)c1 (single isomer, unassigned) [Example 51]",19,,> 25000,
